Measured values published in PubChem BioAssay (NCI).
“And” between values parts separate entries of the source, which are not always exact repeats. Equal entries are not always repeated.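 Growth conditions: 96-well plates. Treatment: test compound, 48 hours, 5 concentrations. Analysis: linear interpolation between bracketing concentrations; unreached endpoints set to highest concentration. The concentration for 50% growth inhibition is given as GI50. TGI denotes the concentration required for complete inhibition of growth.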

What was measured:
Assay in all cases: growth of human tumour cells (NCI), 48 h
ACHN renal = tested on: ACHN renal
CAKI-1 renal = tested on: CAKI-1 renal
HOP-62 NSCLC = tested on: HOP-62 NSCLC
M14 melanoma = tested on: M14 melanoma
MALME-3M melanoma = tested on: MALME-3M melanoma
NCI-H226 lung = tested on: NCI-H226 lung
NCI-H460 lung = tested on: NCI-H460 lung
OVCAR-3 ovarian = tested on: OVCAR-3 ovarian
SK-MEL-2 melanoma = tested on: SK-MEL-2 melanoma
UACC-257 melanoma = tested on: UACC-257 melanoma

SMILES	TGI (ACHN renal) [µM]	TGI (CAKI-1 renal)	TGI (HOP-62 NSCLC)	TGI (M14 melanoma)	TGI (MALME-3M melanoma)	TGI (NCI-H226 lung)	TGI (NCI-H460 lung)	TGI (OVCAR-3 ovarian)	TGI (SK-MEL-2 melanoma) [µM]	TGI (UACC-257 melanoma)	GI50 (ACHN renal) [µM]	GI50 (CAKI-1 renal) [µM]	GI50 (HOP-62 NSCLC) [µM]	GI50 (M14 melanoma) [µM]	GI50 (MALME-3M melanoma)	GI50 (NCI-H226 lung) [µM]	GI50 (NCI-H460 lung) [µM]	GI50 (OVCAR-3 ovarian) [µM]	GI50 (SK-MEL-2 melanoma)	GI50 (UACC-257 melanoma) [µM]
Cc1ccc(NC(=O)CCC(=O)C(C#N)c2ccc(Cl)cc2)cc1C (stereo not given)	> 100	> 100 µM	> 100 µM	> 100 µM	> 100 µM	> 100 µM	> 100 µM	> 100 µM	> 100	> 100 µM										
C/C(=N\N=C(N)N)c1sc(-c2nc(C)c(/C(C)=N/N=C(N)N)s2)nc1C	> 100	> 100 µM	> 100 µM	> 100 µM	> 100 µM	> 100 µM	> 100 µM	> 100 µM	> 100	> 100 µM										
CN1C=CN(Cc2ccc(-c3ccccn3)nc2)[CH-]1.CN1C=CN(Cc2ccc(-c3ccccn3)nc2)[CH-]1.[Au+3]	> 100	> 100 µM	25.8 µM	20.6 µM	10.5 µM	> 64.2 µM	> 100 µM	13.8 µM	32.4	7.47 µM	14.6	18.4	8.31	2.82	2.21 µM	5.65	3.37	2.41	7.05 µM	1.52
C/C(=N\NC(=S)Nc1ccc([N+](=O)[O-])cc1S(=O)(=O)O)c1ccccn1	> 100	> 100 µM	> 100 µM	> 100 µM	> 100 µM	> 100 µM	69 µM	72.7 µM	91.3	> 100 µM										
Cc1ccc(S(=O)(=O)ON=C2CC(c3ccccc3)N(C)C(c3ccccc3)C2)cc1 (stereo not given)	50.7	71.5 µM and 44.9 µM	68.4 µM and 98.2 µM	34.9 µM and 43.8 µM	78.1 µM and 66.4 µM	70.1 µM and 64 µM	44.1 µM and 52.7 µM	47.8 µM and 49.4 µM	30	52.2 µM and 58 µM										
C1CCN2CC34CC(CC5CCCN(C6CCCC3N6)C54)C2C1 (stereo not given)	> 100	> 100 µM	> 100 µM	> 100 µM	> 100 µM	> 100 µM	> 100 µM	> 100 µM	> 100	> 100 µM										
CCCCCCCCSC(SCCCCCCCC)=C1C(=O)N(c2ccccc2)N=C1C	> 100	90.7 µM	> 100 µM	> 100 µM	> 100 µM	> 100 µM	> 100 µM	> 100 µM	> 100	93.1 µM										
CCc1ccc(/C=C2/SC(=S)NC2=O)cc1	> 100	> 81.5 µM	78.2 µM	82.8 µM	> 80.6 µM	71.3 µM	54.8 µM	35.3 µM	41.3	61.3 µM	27.2	24	25.7	24.3	23.2 µM	20.3	20.7	16.9	16.4 µM	17.7
COCCOCCOCCOCCOc1ccc2c(c1)C(=O)c1nc3ncccc3c(=O)n1-2	8.19	2.02 µM	2.18 µM	1.44 µM	0.339 µM	3.31 µM	1.39 µM	3.39 µM	6.21	2.38 µM	2.64	0.663	0.744	0.312	0.155 µM	1.65	0.4	0.969	2.42 µM	0.763
COc1cc(C(=O)c2c(-c3ccccc3)oc3ccccc23)cc(OC)c1O	41.1	16 µM	23.4 µM	10.7 µM	20.5 µM	37.2 µM	10.7 µM	5.21 µM	29.2	64.3 µM	4.49	0.766	7.3	0.58	1.13 µM	8.14	2.22	1.11	6.78 µM	16
O=C(Nc1ccc(-c2nc3ccc(NC(=O)c4ccc(Cl)cc4)cc3[nH]2)cc1)c1ccc(Cl)cc1	21.1	23.7 µM	9.07 µM	18 µM	11.4 µM	31.8 µM	4.03 µM	11.4 µM	25.2	24.1 µM	8.65	7.12	2.59	5.28	3.79 µM	15.1	1.79	3.31	12.6 µM	11.5
Cn1cc(/C=C2\C(=O)Nc3cccnc32)c2ccccc21	> 25	> 25 µM	> 25 µM	> 25 µM	> 25 µM	> 25 µM	> 25 µM	> 25 µM	> 25	> 25 µM	11.5	10.2	> 25	9.32	24.5 µM	10.8	16.4	> 22.5	11.6 µM	13.9
C=C1C(=O)C23C(CC(OC(C)=O)C1[C@@H]2OC(C)=O)C1(C)C(OC(C)=O)CCC(C)(C)C1C[C@@H]3OC(C)=O (stereo not given in full)	2.92	1.94 µM	7.98 µM	2.92 µM	3.01 µM	3.13 µM	3.37 µM	3.03 µM	3.37	3.14 µM										
O=C(O)C(O)C(O)C1[O][Sb][O]C1CO (stereo not given)	> 100	> 100 µM	> 100 µM	> 100 µM	68.3 µM and 23.6 µM	> 100 µM	> 100 µM	> 100 µM	> 100	> 100 µM	> 100	> 100	> 100	> 100	23.6 µM and 7.62 µM	> 100	> 100	> 100	85.8 µM and 36.8 µM	> 100
CC12CC(=O)NN=C1c1ccccc1C2 (stereo not given)	> 100	> 100 µM	> 100 µM	> 100 µM	> 100 µM	> 100 µM	> 100 µM	> 100 µM	> 100	> 100 µM										
Cc1cc(C#Cc2ccccc2)ccc1-n1c(/C=C/c2ccc(O)cc2)nc2ccccc2c1=O	8.52	36.5 µM	> 100 µM	15.1 µM	7.31 µM	> 100 µM	6.18 µM	25.7 µM	5.76	56.3 µM	2.46	3.3	13.1	3.56	2.12 µM	3.99	2.22	3.6	1.93 µM	4.18
Cc1cc(Br)cc(C)c1NC(=O)C(=O)C(C(=O)c1ccc(Cl)c(Cl)c1)C1OC(=O)c2ccccc21 (stereo not given)	> 100	> 100 µM	> 100 µM	> 100 µM	> 100 µM	> 100 µM	> 100 µM	> 100 µM	> 100	> 100 µM										
Fc1ccc(-c2c(-c3ccncc3)n(CCN3CCOCC3)c3cccnc23)cc1	> 25	> 25 µM	> 25 µM	> 25 µM	> 25 µM	> 25 µM	> 25 µM	> 25 µM	> 25	> 25 µM	> 25	> 25	> 25	> 25	> 25 µM	> 25	> 25	> 25	> 25 µM	> 25
COc1ccc2c3c([nH]c2c1)[C@H]1C[C@H]2[C@H](C[C@@H](O)[C@H](OC)[C@H]2C(=O)O)CN1CC3	> 100	> 100 µM	> 100 µM	> 100 µM	> 100 µM	> 100 µM	> 100 µM	> 100 µM	> 100	> 100 µM										
Cc1[nH]nc(C(=O)N/N=C/c2cccs2)c1N=NN(C)C	13	25.9 µM	50.1 µM	> 100 µM	56.7 µM	70.1 µM	34.7 µM	> 100 µM	79.8	72.4 µM										
